We go through one compound from patent publication US20090028816A1, “Treatment of depression, psychosis, and anxiety” (priority 2007, published 2009).

This data set can be described thus: Range-finding tolerability and efficacy studies in neurological models. The settings on record: intraperitoneally at dose levels up to 15 mg/kg twice a day (bid) for multiple days. The data set is classed as in vivo. As to the method:
Ibudilast is obtained as a pure powder from Sigma (St. Louis, Mo.) or Haorui Pharma (Edison, N.J.) and prepared daily as a solution for intraperitoneal or oral administration. Previous range-finding tolerability and efficacy studies in neurological models indicate that ibudilast is well-tolerated intraperitoneally at dose levels up to 15 mg/kg twice a day (bid) for multiple days. An appropriate amount of ibudilast is dissolved in 100% […] (PEG) 400 (Sigma) and then diluted down to a final concentration of 35% PEG400 in sterile saline (0.9% for injection). Drug stability and concentration are validated by HPLC/MS/MS.

Consider `CC(C)C(=O)c1c(C(C)C)nn2ccccc12` [Ibudilast, 3-isobutyryl-2-isopropylpyrazolo[1,5-a]pyridine], for which the “tolerability, intraperitoneal” value is listed as “well-tolerated”.
